Data as given in the supplement of paper PMC10307832.

How the values were obtained:
Assay in all cases: relative viability (nuclei count vs DMSO), 5 days (fraction); higher = more cells survive
NCI-H1666 = system: NCI-H1666
Summary of the method: (§1)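 Lung cancer cell lines, seeded in 1536-well plates, were treated the following day by pin tool with a single drug or with five library-drug doses (not always all listed) in √10 steps on top of a fixed anchor-drug dose. Cells were fixed and nuclei stained in one step after 5 days, and nuclei were counted. Relative viability is the nuclei count for treated wells divided by that for vehicle wells, reported as medians of duplicate plates.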

NCI-H1648 = system: NCI-H1648
Summary of the method: as §1

NCI-H2126 = system: NCI-H2126
Summary of the method: as §1

NCI-H2085 = system: NCI-H2085
Summary of the method: as §1

LCLC-103H = system: LCLC-103H
Summary of the method: as §1

NCI-H2342 = system: NCI-H2342
Summary of the method: as §1

SW 900 = system: SW 900
Summary of the method: as §1

NCI-H1915 = system: NCI-H1915
Summary of the method: as §1

NCI-H1437 = system: NCI-H1437
Summary of the method: as §1

NCI-H1755 = system: NCI-H1755
Summary of the method: as §1

NCI-H838 = system: NCI-H838
Summary of the method: as §1

In the case of C=C1C(=O)O[C@@H](CCCCCCCC)[C@@H]1C(=O)O [C-75] + NC(=O)Nc1cc(-c2cccc(F)c2)sc1C(=O)N[C@H]1CCCNC1 [AZD7762] (partner 0.2 µM), the relative viability (NCI-H1666; first compound 0.08 µM) is reported as 0.801, the relative viability (NCI-H1666; first compound 0.253 µM) is reported as 0.955 and the relative viability (NCI-H1666; first compound 0.8 µM) is reported as 0.725. For the same compound, the relative viability (NCI-H1666; first compound 2.53 µM) was 0.657, the relative viability (NCI-H1666; first compound 8 µM) was 0.708 and the relative viability (NCI-H1648; first compound 0.08 µM) was 0.75. For the same compound, the relative viability (NCI-H1648; first compound 0.253 µM) was 1.2, the relative viability (NCI-H1648; first compound 0.8 µM) was 0.712 and the relative viability (NCI-H1648; first compound 8 µM) was 0.622. The relative viability (NCI-H2126; first compound 0.08 µM) was 0.953, the relative viability (NCI-H2126; first compound 0.253 µM) was 1.13 and the relative viability (NCI-H2126; first compound 0.8 µM) was 0.965. It also gave a relative viability (NCI-H2126; first compound 2.53 µM) of 0.886, a relative viability (NCI-H2126; first compound 8 µM) of 1.01 and a relative viability (NCI-H2085; first compound 0.08 µM) of 0.95. For the same compound, the relative viability (NCI-H2085; first compound 0.253 µM) was 1.09, the relative viability (NCI-H2085; first compound 0.8 µM) was 0.919 and the relative viability (NCI-H2085; first compound 2.53 µM) was 0.943. The relative viability (NCI-H2085; first compound 8 µM) was 1, the relative viability (LCLC-103H; first compound 0.08 µM) was 0.809 and the relative viability (LCLC-103H; first compound 0.253 µM) was 0.619. For the same compound, the relative viability (LCLC-103H; first compound 0.8 µM) was 0.695, the relative viability (LCLC-103H; first compound 2.53 µM) was 0.654 and the relative viability (LCLC-103H; first compound 8 µM) was 0.814. For the same compound, the relative viability (NCI-H2342; first compound 0.08 µM) was 0.569, the relative viability (NCI-H2342; first compound 0.253 µM) was 0.562 and the relative viability (NCI-H2342; first compound 0.8 µM) was 0.45. It also gave a relative viability (NCI-H2342; first compound 2.53 µM) of 0.458, a relative viability (NCI-H2342; first compound 8 µM) of 0.505 and a relative viability (SW 900; first compound 0.08 µM) of 0.663. For the same compound, the relative viability (SW 900; first compound 0.253 µM) was 0.69, the relative viability (SW 900; first compound 0.8 µM) was 0.623 and the relative viability (SW 900; first compound 2.53 µM) was 0.576. The relative viability (SW 900; first compound 8 µM) was 0.611, the relative viability (NCI-H1915; first compound 0.08 µM) was 0.716 and the relative viability (NCI-H1915; first compound 0.253 µM) was 0.683. It also gave a relative viability (NCI-H1915; first compound 0.8 µM) of 0.739, a relative viability (NCI-H1915; first compound 2.53 µM) of 0.621 and a relative viability (NCI-H1915; first compound 8 µM) of 0.79. It also gave a relative viability (NCI-H1437; first compound 0.08 µM) of 1.11, a relative viability (NCI-H1437; first compound 0.253 µM) of 1.09 and a relative viability (NCI-H1437; first compound 0.8 µM) of 1.09. The relative viability (NCI-H1437; first compound 2.53 µM) was 1.09, the relative viability (NCI-H1437; first compound 8 µM) was 1.15 and the relative viability (NCI-H1755; first compound 0.08 µM) was 0.42. The relative viability (NCI-H1755; first compound 0.253 µM) was 0.473, the relative viability (NCI-H1755; first compound 0.8 µM) was 0.397 and the relative viability (NCI-H1755; first compound 2.53 µM) was 0.405. It also gave a relative viability (NCI-H1755; first compound 8 µM) of 0.416, a relative viability (NCI-H838; first compound 0.08 µM) of 0.89 and a relative viability (NCI-H838; first compound 0.253 µM) of 0.752. It also gave a relative viability (NCI-H838; first compound 0.8 µM) of 0.943, a relative viability (NCI-H838; first compound 2.53 µM) of 0.865 and a relative viability (NCI-H838; first compound 8 µM) of 0.891.
